The values below come from patent US8215314B2, “Photochemical tissue bonding” (The General Hospital Corporation, priority 2000, dated 2012).

Test [1] concerns pig vein and arteries. Nature of the test: Ex vivo porcine blood vessel anastomosis by PTB (cuff approach), tensile strength. The note with it: 0.1% v/v in saline, 532 nm, 0.5 W/cm2 for 2.5 minutes. The source says:
In adhering segments of vascular tissue according to methods of the invention, two pieces of blood vessel are joined and photochemically bonded together to create an intimate, watertight seal. Two methods were considered to accomplish anastomosis. The “cuff” approach, which entails administration of the photoactive dye to the outer surface of the proximal vessel and the inside surface of the distal stump of the vessel. The distal stump is folded back on itself and the proximal stump brought into contact. The distal cuff is then placed over the proximal vessel to form a cuff. The overlap region in the cuff is then irradiated with visible light to bond the ends of the vessel together. FIG. 30 represents a schematic overview of the cuff approach.
The cuff approach was used with pig vein and arteries ex vivo. The vessels were sharply transected using a scalpel. Rose bengal at a concentration of 0.1% v/v in saline was applied to the outside surface of the proximal stump of the vessel and the inside surface of the distal vessel. The vessels were then mounted over a cylindrical glass rod that acts as support for the hollow vessels. A distal cuff was formed by folding the end of the distal end back on itself, as described above and in FIG. 30. […]

Test [2] concerns corneal incision, rabbit eyes ex vivo. Nature of the test: IOP required to produce fluid leakage from corneal incision (IOPL) after PTB, ex vivo. As to conditions: for mean IOPL: RB 1.5 mM, 514 nm. The procedure: PTB can be used to seal or repair a tissue, e.g., a wound, e.g., a corneal wound. This example illustrates the experimental procedure designed to test the efficacy of PTB, as described herein, using mammalian corneas ex vivo. Experiments were performed according to the following procedure.
Rabbit eyes were received on ice (Pel-Freez Biologicals) approximately 17-24 hours after sacrifice and enucleation. The eyes were kept on ice and used the same day. The eye to be studied was mounted on a plastic-covered polystyrene block and fixed in position by needles inserted through the extraocular muscles into the polystyrene. The eye was then placed under a dissecting microscope (Reichert Scientific Instruments, Ill.) allowing visualization of the treated area during the entire procedure. A 27 G needle was inserted parallel to the iris, 2 mm anterior to the limbus into clear cornea, and positioned above the lens in the anterior chamber. The needle was connected to both a blood pressure transducer (Harvard Apparatus, Mass.) and a mini-infuser 400 (Bard Harvard) via a T coupler. The pressure transducer consists of a transducer element that is hard wired to an amplifier box and uses a semi-disposable dome with an integral silicone rubber membrane. Pressure inside the dome is transmitted through the membrane to a plastic button whose motion is translated to a voltage. The voltage generated by the transducer amplifier combination is proportional to the […] intraocular pressure (IOP). Signals from the transducer amplifier were recorded using a Macintosh G3 Power book equipped with a PCMICA (DAQCARD—1200) data acquisition card (National Instruments, Tex.). Data acquisition was controlled using programs written using the LabView 4 software package (National Instruments, Tex.). The voltage from the transducer and amplifier was converted to pressure by calibrating with a standing manometer.
Experiments on individual eyes were initiated by increasing the IOP to 30-40 mm Hg, using water infusion at a rate of 1 mL per minute. An incision was made in the cornea, 1 mm from the limbus and parallel to the iris, using a 3.5 mm angled keratome (Becton Dickinson Co.). For each eye the IOP required to produce fluid leakage from the incision (IOPL) was recorded pre- and post-PTB treatment. A photosensitizer, dissolved in phosphate buffer solution (PBS, pH 7.2, Gibco BRL) was applied to the walls of the incision using a Gastight, 50 μl syringe (Hamilton Co.) with a 27 G needle.
Irradiations employed a continuous wave (CW) argon-ion laser (Innova 100; Coherent, Inc., Palo Alto, Calif.) at 488 nm (for Fl and R-5-P), 514.5 nm (for RB) or 351 nm (for NHPT). An argon-ion-pumped dye laser (CR-599; Coherent) with 4-dicyanomethylene-2-methyl-6-(p-dimethylaminostyryl)-4H-pyran dye (Exciton, Inc., Dayton, Ohio) was used for irradiation at 661 nm (for MB). Laser light was coupled into a 1 mm diameter quartz fiber and a 1 cm diameter spot on the tissue was created by using a combination of 1 and 2 inch focal length, S1-UV grade fused silica, biconvex lenses (Esco Products), mounted in a SM1 series cage assembly (Thorlabs, N.J.). The 1 cm diameter circular spot was sufficient to cover the entire incision and the optics were adjusted so that the laser light was incident on the cornea at an angle approximately 45° to the plane of the incision. Dose response curves were obtained by varying the duration of the irradiation at a constant irradiance. In separate experiments the effects of laser irradiance were investigated by comparison of the same delivered dose using different irradiances. The doses used ranged from 124 to 1524 J/cm^2 and the irradiances used were 0.64, 1.27, 2.55 and 3.86 W/cm^2. The laser exposure time varied from 33 seconds for the lowest dose using the highest irradiance to 26 minutes, 27 seconds for the highest dose using the lowest irradiance. The IOPL was recorded immediately following treatment. […]

For test [3], the system named is bovine tendon / NeuraGen collagen conduit interface. Nature of the test: Tensile strength of PTB bond between NeuraGen conduit and bovine tendon. The note with it: RB dye, 532 nm, fluence of 150-300 Joules, 0.25 cm^2 interface. Here is the method: Additional experiments were also performed to determine the effectiveness of PTB bonding between the NeuraGen™ conduits and an animal tissue, namely bovine tendon tissue. To do this, the tensile strength of a PTB bond formed between the bovine tendon and a segment of Neuregen™ conduit was tested, using various different photoactive dyes. Both the tendon surface and the inner surface of a piece of conduit were coated with RB dye and allowed to sit in the dark for 60 seconds. The two surfaces were then thoroughly dried and pressed together to form a tendon/conduit interface of approximately 0.25 cm^2. The construct was irradiated at 532 nm through the conduit toward the tendon/conduit interface at various fluence levels (Joules). Constructs were then pulled into tension using a tensiometer until the bond between the tendon and the conduit broke. The breaking force was measured in Newtons.

`O=C([O-])c1c(Cl)c(Cl)c(Cl)c(Cl)c1-c1c2cc(I)c(=O)c(I)c-2oc2c(I)c([O-])c(I)cc12.[Na+].[Na+]` [Rose Bengal]: the “stretch of anastomosed vessels before rupture” value in test [1] is recorded as 3-4 times their normal length. Further, in test [2] (1.5 mM RB and 514 nm laser light), the “mean IOPL post-treatment” value is listed as “greater than 300±48 mm Hg”. The figures for the “mean IOPL” value in test [2] (1270 J/cm^2 at 1.27 W/cm^2), in test [2] (1270 J/cm^2 at 2.55 W/cm^2) and in test [2] (1270 J/cm^2 at 3.86 W/cm^2) were 274 mm Hg, 150 mm Hg and 130 mm Hg, respectively. In addition, in test [2] (RB, all doses delivered at 1.27 and 2.55 W/cm^2), the IOPL result is listed as “greater than 100 mm Hg”. The “rise in IOPL” value in test [2] (RB, doses below 508 J/cm^2 at any irradiance tested) is on record as “No significant rise”. In addition, the “increase between pre- and post-treatment IOPL” value in test [2] (photosensitizer alone, no laser irradiation) is “no significant increase”. Moreover, the “bond between tendon and conduit (breaking force)” value in test [3] is on record as “effective bond was formed”.
